Measured values: patent US8772500B2, “TRPV3 modulators” (AbbVie Inc., priority 2011, dated 2014)

Tests used:
[1] = In vitro human microsomal stability assay; type: in vitro ADME; conditions: human, 0.5 h, 0.5 μM, pH 7.4
Procedure: (§1) Test compounds were evaluated for metabolic stability in an in vitro rat microsomal stability assay using rat (Sprague-Dawley, from BD Biosciences) liver microsomes and/or an in vitro human microsomal stability assay using human (Xenotech) liver microsomes. […] Incubations were carried out at 37° C. with a final incubation volume of 135 μL. […] A 1.5 μL aliquot of reduced nicotine adenine disphosphonucleotide (NADPH) (Chem-Impex Int'L Inc., Lot 12532024) was also added to the time-zero plates.

[2] = In vitro rat microsomal stability assay; type: in vitro ADME, rat (Sprague-Dawley); conditions: Sprague-Dawley, rat, 0.5 h, 0.5 μM, pH 7.4
Procedure: as §1

| Compound | HUMAN MICROSOMAL STABILITY (% REMAINING AFTER 30 MINUTES) [1] | RAT MICROSOMAL STABILITY (% REMAINING AFTER 30 MINUTES) [2] |
| --- | --- | --- |
| OC(C1CCCc2cccnc21)C1(c2ccc(F)c(F)c2)CCC1 (stereo not drawn) [Example 170, (syn)-[1-(3,4-difluorophenyl)cyclobutyl][5,6,7,8-tetrahydroquinolin-8-yl]-methanol] | <0.01% | <0.01% |
| OC(C1CCc2cccnc21)C1(c2ccc(F)c(F)c2)CCC1 (stereo not drawn) [Example 171, (anti)-[1-(3,4-difluorophenyl)cyclobutyl][6,7-dihydro-5H-cyclopenta[b]-pyridin-7-yl]methanol] | 2.7% | <0.01% |
| OC(C1CCc2cccnc21)C1(c2ccc(F)c(F)c2)CCC1 (stereo not drawn) [Example 172, (syn)-[1-(3,4-difluorophenyl)cyclobutyl][6,7-dihydro-5H-cyclopenta[b]-pyridin-7-yl]methanol] | 2.4% | <0.01% |
| OC(C1CCc2cccnc21)C1(c2ccc(C(F)(F)F)cc2)CCC1 (stereo not drawn) [Example 173, (anti)-6,7-dihydro-5H-cyclopenta[b]pyridin-7-yl{1-[4-(trifluoromethyl)-phenyl]cyclobutyl}methanol] | 45% | <0.01% |
| OC(C1CCc2cccnc21)C1(c2ccc(C(F)(F)F)cc2)CCC1 (stereo not drawn) [Example 174, (syn)-6,7-dihydro-5H-cyclopenta[b]pyridin-7-yl{1-[4-(trifluoromethyl)-phenyl]cyclobutyl}methanol] | 26% | <0.01% |
| OC(C1CCc2cccnc21)C1(c2ccc(OC(F)(F)F)cc2)CCC1 (stereo not drawn) [Example 175, (anti)-6,7-dihydro-5H-cyclopenta[b]pyridin-7-yl{1-[4-(trifluoromethoxy)-phenyl]cyclobutyl}methanol] | 29% | <0.01% |
| OC(C1CCc2cccnc21)C1(c2ccc(OC(F)(F)F)cc2)CCC1 (stereo not drawn) [Example 176, (syn)-6,7-dihydro-5H-cyclopenta[b]pyridin-7-yl{1-[4-(trifluoromethoxy)-phenyl]cyclobutyl}methanol] | 20% | <0.01% |
| OC(C1CCc2cccnc21)C1(c2cccc(C(F)(F)F)c2)CCC1 (stereo not drawn) [Example 185, (anti)-6,7-dihydro-5H-cyclopenta[b]pyridin-7-yl{1-[3-(trifluoromethyl)-phenyl]cyclobutyl}methanol] | 0.39% | <0.01% |
| OC(C1CCCc2cccnc21)C1(c2cccc(OC(F)(F)F)c2)CCC1 (stereo not drawn) [Example 187, (anti)-5,6,7,8-tetrahydroquinolin-8-yl{1-[3-(trifluoromethoxy)phenyl]-cyclobutyl}methanol] | <0.01% | <0.01% |
| OC(C1CCCc2cccnc21)C1(c2cccc(OC(F)(F)F)c2)CCC1 (stereo not drawn) [Example 188, (syn)-5,6,7,8-tetrahydroquinolin-8-yl{1-[3-(trifluoromethoxy)phenyl]-cyclobutyl}methanol] | 0.16% | <0.01% |
| OC(C1CCc2cccnc21)C1(c2cccc(OC(F)(F)F)c2)CCC1 (stereo not drawn) [Example 189, (anti)-6,7-dihydro-5H-cyclopenta[b]pyridin-7-yl{1-[3-(trifluoromethoxy)-phenyl]cyclobutyl}methanol] | 0.65% | <0.01% |
| OC(C1CCc2cccnc21)C1(c2cccc(OC(F)(F)F)c2)CCC1 (stereo not drawn) [Example 190, (syn)-6,7-dihydro-5H-cyclopenta[b]pyridin-7-yl{1-[3-(trifluoromethoxy)-phenyl]cyclobutyl}methanol] | 3.7% | <0.01% |
| OC(C1CCCc2cccnc21)C1(c2ccccc2OC(F)(F)F)CCC1 (stereo not drawn) [Example 191, (anti)-5,6,7,8-tetrahydroquinolin-8-yl{1-[2-(trifluoromethoxy)phenyl]-cyclobutyl}methanol] | <0.01% | <0.01% |
| OC(C1CCCc2cccnc21)C1(c2ccccc2OC(F)(F)F)CCC1 (stereo not drawn) [Example 192, (syn)-5,6,7,8-tetrahydroquinolin-8-yl{1-[2-(trifluoromethoxy)phenyl]-cyclobutyl}methanol] | <0.01% | <0.01% |
| OC(C1CCc2cccnc21)C1(c2ccccc2OC(F)(F)F)CCC1 (stereo not drawn) [Example 193, (anti)-6,7-dihydro-5H-cyclopenta[b]pyridin-7-yl{1-[2-(trifluoromethoxy)-phenyl]cyclobutyl}methanol] | 0.02% | <0.01% |
| OC(C1CCc2cccnc21)C1(c2ccccc2OC(F)(F)F)CCC1 (stereo not drawn) [Example 194, (syn)-6,7-dihydro-5H-cyclopenta[b]pyridin-7-yl{1-[2-(trifluoromethoxy)-phenyl]cyclobutyl}methanol] | 0.08% | <0.01% |

| Compound | HUMAN MICROSOMAL STABILITY (% REMAINING AFTER 30 MINUTES) [1] | RAT MICROSOMAL STABILITY (% REMAINING AFTER 30 MINUTES) [2] |
| --- | --- | --- |
| OC(C1CCCc2cccnc21)C1(c2ccccc2C(F)(F)F)CCC1 (stereo not drawn) [Example 195, (anti)-5,6,7,8-tetrahydroquinolin-8-yl{1-[2-(trifluoromethyl)phenyl]-cyclobutyl}methanol] | <0.01% | <0.01% |
| OC(C1CCCc2cccnc21)C1(c2ccccc2C(F)(F)F)CCC1 (stereo not drawn) [Example 196, (syn)-5,6,7,8-tetrahydroquinolin-8-yl{1-[2-(trifluoromethyl)phenyl]-cyclobutyl}methanol] | <0.01% | <0.01% |
| OC(C1CCc2cccnc21)C1(c2ccccc2C(F)(F)F)CCC1 (stereo not drawn) [Example 197, (anti)-6,7-dihydro-5H-cyclopenta[b]pyridin-7-yl{1-[2-(trifluoromethyl)-phenyl]cyclobutyl}methanol] | 0.26% | <0.01% |
| OC(C1CCc2cccnc21)C1(c2ccccc2C(F)(F)F)CCC1 (stereo not drawn) [Example 198, (syn)-6,7-dihydro-5H-cyclopenta[b]pyridin-7-yl{1-[2-(trifluoromethyl)-phenyl]cyclobutyl}methanol] | 0.05% | <0.01% |
| O/N=C(\c1ccccn1)C1(c2ccc(Cl)c(Cl)c2)CCC1 [Example 230, (Z)-[1-(3,4-dichlorophenyl)cyclobutyl](pyridin-2-yl)methanone oxime] | 33% | 30% |
| OC(c1ccccn1)C1(C2CCOCC2)CCC1 (centres unmarked) [Example 239, pyridin-2-yl[1-(tetrahydro-2H-pyran-4-yl)cyclobutyl]methanol] | 57% | 0.072% |
| O=C1CC(c2cccc(C(F)(F)F)c2)([C@H](O)c2ccccn2)C1 [Example 241, 3-[(S)-hydroxy(pyridin-2-yl)methyl]-3-[3-(trifluoromethyl)phenyl]-cyclobutanone] | 66% | 59% |
| O=C1CC(c2cccc(C(F)(F)F)c2)([C@@H](O)c2ccccn2)C1 [Example 243, 3-[(R)-hydroxy(pyridin-2-yl)methyl]-3-[3-(trifluoromethyl)phenyl]-cyclobutanone] | 64% | 55% |
| OC(c1ccccn1)C1(C2(O)CCOC2)CCC1 (centres unmarked) [Example 246, 3-{1-[hydroxy(pyridin-2-yl)methyl]cyclobutyl}tetrahydrofuran-3-ol] | 71% | 59% |
| O=C1CC(c2cccc(OC(F)(F)F)c2)([C@H](O)c2ccccn2)C1 [Example 256, 3-[(S)-hydroxy(pyridin-2-yl)methyl]-3-[3-(trifluoromethoxy)phenyl]-cyclobutanone] | 44% | 55% |
| O=C1CC(c2cccc(OC(F)(F)F)c2)([C@@H](O)c2ccccn2)C1 [Example 257, 3-[(R)-hydroxy(pyridin-2-yl)methyl]-3-[3-(trifluoromethoxy)phenyl]-cyclobutanone] | 42% | 57% |
| O=C1CC(c2ccc(F)c(Cl)c2)([C@H](O)c2ccccn2)C1 [Example 268, 3-(3-chloro-4-fluorophenyl)-3-[(S)-hydroxy(pyridin-2-yl)methyl]-cyclobutanone] | 66% | 82% |
| OC(c1ccccn1)C1(C2CCOC2)CCC1 (centres unmarked) [Example 284, pyridin-2-yl[1-(tetrahydrofuran-3-yl)cyclobutyl]methanol] | >85% | 16% |
| COc1ccc(C(O)C2(c3ccc(Cl)c(Cl)c3)CCC2)nc1 (centres unmarked) [Example 287, [1-(3,4-dichlorophenyl)cyclobutyl](5-methoxypyridin-2-yl)methanol] | 15% | <0.01% |
| COc1ccnc(C(O)C2(c3ccc(Cl)c(Cl)c3)CCC2)c1 (centres unmarked) [Example 289, [1-(3,4-dichlorophenyl)cyclobutyl](4-methoxypyridin-2-yl)methanol] | 4.2% | <0.01% |
